Activity calls are given as the source filed them. No cut-off for these calls is given here.
Experiments:
[1] = tested on: Rattus norvegicus; assay: Antihypertensive activity in spontaneous hypertensive rat assessed as change in systolic blood pressure at 100 mg/kg, po dosed at 0 hrs on day 1, 2 and 3 measured on day 1 by indirect tail-cuff method; format: functional
[2] = tested on: Rattus norvegicus; assay: Antihypertensive activity in spontaneous hypertensive rat assessed as change in systolic blood pressure at 100 mg/kg, po dosed at 0 hrs on day 1, 2 and 3 measured on day 3 by indirect tail-cuff method; format: functional
[3] = tested on: Rattus norvegicus; assay: Toxicity in spontaneous hypertensive rat model at 100 mg/kg, po dosed at 0 hrs on day 1, 2 and 3 measured on day 3; format: organism-based; parameters: dose 100 mg/kg, route oral; details: in vivo
[4] = tested on: Rattus norvegicus; assay: Antihypertensive activity in spontaneous hypertensive rat assessed as change in systolic blood pressure at 50 mg/kg, po dosed at 0 hrs on day 1, 2 and 3 measured on day 3 by indirect tail-cuff method; format: functional, Artery

In the case of `Cc1cccc(OC2CCN(C(=O)C(=O)c3c[nH]c4ccccc34)CC2)c1`, the Activity ([1]; Artery) is reported as “inactive” and the Activity ([2]; Artery) is reported as “inactive”.
With `COc1cc2[nH]c(C)c(C(=O)C(=O)N3CCC(Oc4ccc(C(F)(F)F)cc4)CC3)c2cc1OC` the Activity ([1]; Artery) was “inactive” and the Activity ([2]; Artery) was “inactive”.
For `c1ccc(OC2CCN(CCc3c[nH]c4ccccc34)CC2)cc1`, the Activity [1] was -10 mmHg and the Activity [2] was -31 mmHg.
`Clc1ccc(OC2CCN(CCc3c[nH]c4ccccc34)CC2)cc1` gave an Activity [1] of -47 mmHg and an Activity [2] of -54 mmHg.
Work on `COc1ccc2[nH]cc(CCN3CCC(Oc4ccc(F)cc4)CC3)c2c1` yielded an Activity [1] of -2 mmHg and an Activity [2] of -6 mmHg.
`Brc1ccc(OC2CCN(CCc3c[nH]c4ccccc34)CC2)cc1` showed an Activity [1] of -49 mmHg and an Activity [2] of -59 mmHg.
`Cc1[nH]c2ccccc2c1CCN1CCC(Oc2ccc(F)cc2)CC1` was tested, and the Activity [1] was -18 mmHg and the Activity [3] was “Toxic”.
With `Fc1ccc(OC2CCN(CCc3c[nH]c4ccccc34)CC2)cc1` the Activity [1] was -56 mmHg and the Activity [2] was -55 mmHg.
In the case of `Cc1ccc(OC2CCN(C(=O)C(=O)c3c[nH]c4ccccc34)CC2)cc1`, the Activity ([1]; Artery) is reported as “inactive” and the Activity ([2]; Artery) is reported as “inactive”.
For `Cc1ccc(OC2CCN(CCc3c[nH]c4ccccc34)CC2)cc1`, the Activity [1] was -48 mmHg and the Activity [2] was -57 mmHg.
`Cc1[nH]c2ccccc2c1C(=O)C(=O)N1CCC(Oc2ccc(F)cc2)CC1` was tested, and the Activity ([1]; Artery) was “inactive” and the Activity ([2]; Artery) was “inactive”.
With `O=C(C(=O)N1CCC(Oc2ccccc2)CC1)c1c[nH]c2ccccc12` the Activity ([1]; Artery) was “inactive” and the Activity ([2]; Artery) was “inactive”.
With `Cc1cccc(OC2CCN(CCc3c[nH]c4ccccc34)CC2)c1` the Activity [1] was -3 mmHg and the Activity [2] was -14 mmHg.
Work on `Cc1ccc(OC2CCCN(CCc3c[nH]c4ccccc34)C2)cc1` (stereo not given) yielded an Activity [1] of -63 mmHg and an Activity [2] of -12 mmHg.
Work on `COc1cc2[nH]c(C)c(CCN3CCC(Oc4ccc(C(F)(F)F)cc4)CC3)c2cc1OC` yielded an Activity [1] of -24 mmHg and an Activity [2] of -58 mmHg.
In the case of `O=C(C(=O)N1CCC(Oc2ccc(F)cc2)CC1)c1c[nH]c2ccccc12`, the Activity ([1]; Artery) is reported as “inactive” and the Activity ([2]; Artery) is reported as “inactive”.
With `Cc1ccccc1OC1CCN(C(=O)C(=O)c2c[nH]c3ccccc23)CC1` the Activity ([1]; Artery) was “inactive” and the Activity ([2]; Artery) was “inactive”.
In the case of `O=C(C(=O)N1CCC(Oc2ccc(Cl)cc2)CC1)c1c[nH]c2ccccc12`, the Activity ([1]; Artery) is reported as “inactive” and the Activity ([2]; Artery) is reported as “inactive”.
For `Cc1ccc(OC2CCCN(C(=O)C(=O)c3c[nH]c4ccccc34)C2)cc1` (stereo not given), the Activity ([1]; Artery) was “inactive” and the Activity ([2]; Artery) was “inactive”.
In the case of `O=C(C(=O)N1CCC(Oc2cccc(Cl)c2)CC1)c1c[nH]c2ccccc12`, the Activity ([1]; Artery) is reported as “inactive” and the Activity ([2]; Artery) is reported as “inactive”.
With `Cc1ccccc1OC1CCN(CCc2c[nH]c3ccccc23)CC1` the Activity [1] was -7 mmHg and the Activity [2] was -8 mmHg.
`O=C(C(=O)N1CCC(Oc2ccc(F)cc2)CC1)c1c[nH]c2ccc(OCc3ccccc3)cc12` was tested, and the Activity ([1]; Artery) was “inactive” and the Activity ([2]; Artery) was “inactive”.
`Cl.O=C(NC1CCN(CCc2c[nH]c3ccccc23)CC1)c1ccccc1` [INDORAMIN HYDROCHLORIDE] gave an Activity [4] of -79 mmHg.
With `FC(F)(F)c1ccc(OC2CCN(CCc3c[nH]c4ccccc34)CC2)cc1` the Activity [1] was -24 mmHg and the Activity [3] was “Toxic”.
Work on `Clc1cccc(OC2CCN(CCc3c[nH]c4ccccc34)CC2)c1` yielded an Activity [1] of -11.2 mmHg and an Activity [2] of -8 mmHg.
With `O=C(C(=O)N1CCC(Oc2ccc(C(F)(F)F)cc2)CC1)c1c[nH]c2ccccc12` the Activity ([1]; Artery) was “inactive” and the Activity ([2]; Artery) was “inactive”.
In the case of `Fc1ccc(OC2CCN(CCc3c[nH]c4ccc(OCc5ccccc5)cc34)CC2)cc1`, the Activity [1] is reported as -2 mmHg and the Activity [2] is reported as -16 mmHg.
For `COc1ccc2[nH]cc(C(=O)C(=O)N3CCC(Oc4ccc(F)cc4)CC3)c2c1`, the Activity ([1]; Artery) was “inactive” and the Activity ([2]; Artery) was “inactive”.

From ChEMBL document CHEMBL3244144, “Piperidylalkylindoles. 1. Hypotensive activity of 3-[2-(phenoxypiperidyl)ethyl]indoles” (J Med Chem, 1978)
